Experimental data taken from patent US4242350A, “Antisecretory thiadiazole derivatives, processes for their manufacture and pharmaceutical compositions containing them” (Imperial Chemical Industries Limited, priority 1978, dated 1980).

Legend:
[1] = oral tolerance in dogs; assay type: in vivo; details: dogs dosed orally with 100 mg./kg.
From the text: No overt toxicity or side effects were noted during the dog tests.

[2] = oral toxicity in rodents; assay type: in vivo; details: dosed orally to rodents at 300 mg/kg

Which tolerance [1] does the source give for `CNC(=NC#N)NCCSCc1nsc(NC(=N)N)n1` [3-[2-(2-cyano-3-methylguanidino)ethylthiomethyl]-5-guanidino-1,2,4-thiadiazole] here?
The tolerance was “well tolerated”.

What about the toxicity [2] of the same molecule?
The toxicity was “no toxicity”.
